Test results from the supplement of paper PMC10307832.

How the values were obtained:
Test in all cases: relative viability (nuclei count vs DMSO), 5 days (fraction); higher = more cells survive
NCI-H358 = test system: NCI-H358
Summary of the method: (§1)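 Each reported value is a median over duplicate plates. It expresses relative viability: treated-well nuclei count divided by vehicle-well nuclei count. Lung cancer cell lines in 1536-well plates were dosed by pin tool a day after seeding, alone with one drug or with a fixed anchor-drug dose plus five library-drug doses (not always all listed) in √10 steps, and nuclei were counted after 5 days.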

NCI-H1355 = test system: NCI-H1355
Summary of the method: as §1

NCI-H2228 = test system: NCI-H2228
Summary of the method: as §1

COR-L23 = test system: COR-L23
Summary of the method: as §1

NCI-H1755 = test system: NCI-H1755
Summary of the method: as §1

SK-MES-1 = test system: SK-MES-1
Summary of the method: as §1

NCI-H1793 = test system: NCI-H1793
Summary of the method: as §1

COR-L 105 = test system: COR-L 105
Summary of the method: as §1

HOP-62 = test system: HOP-62
Summary of the method: as §1

NCI-H1395 = test system: NCI-H1395
Summary of the method: as §1

NCI-H2170 = test system: NCI-H2170
Summary of the method: as §1

NCI-H1993 = test system: NCI-H1993
Summary of the method: as §1

UMC-11 = test system: UMC-11
Summary of the method: as §1

NCI-H1734 = test system: NCI-H1734
Summary of the method: as §1

NCI-H647 = test system: NCI-H647
Summary of the method: as §1

NCI-H1792 = test system: NCI-H1792
Summary of the method: as §1

NCI-H838 = test system: NCI-H838
Summary of the method: as §1

HCC-15 = test system: HCC-15
Summary of the method: as §1

NCI-H2009 = test system: NCI-H2009
Summary of the method: as §1

NCI-H2347 = test system: NCI-H2347
Summary of the method: as §1

HARA = test system: HARA
Summary of the method: as §1

COc1cc2nccc(Oc3ccc(NC(=O)Nc4cc(C)on4)c(Cl)c3)c2cc1OC [Tivozanib] + CS(=O)(=O)CCNCc1ccc(-c2ccc3ncnc(Nc4ccc(OCc5cccc(F)c5)c(Cl)c4)c3c2)o1 [Lapatinib] (partner 2 µM)
relative viability (NCI-H358; first compound 0.005 µM): 0.476 | relative viability (NCI-H358; first compound 0.01581 µM): 0.563 | relative viability (NCI-H358; first compound 0.05 µM): 0.479 | relative viability (NCI-H358; first compound 0.1581 µM): 0.435 | relative viability (NCI-H358; first compound 0.5 µM): 0.499 | relative viability (NCI-H1355; first compound 0.005 µM): 0.894 | relative viability (NCI-H1355; first compound 0.01581 µM): 0.941 | relative viability (NCI-H1355; first compound 0.05 µM): 1 | relative viability (NCI-H1355; first compound 0.5 µM): 0.92 | relative viability (NCI-H2228; first compound 0.005 µM): 1.07 | relative viability (NCI-H2228; first compound 0.01581 µM): 1.1 | relative viability (NCI-H2228; first compound 0.05 µM): 1.07 | relative viability (NCI-H2228; first compound 0.1581 µM): 1.03 | relative viability (NCI-H2228; first compound 0.5 µM): 0.948 | relative viability (COR-L23; first compound 0.005 µM): 0.902 | relative viability (COR-L23; first compound 0.01581 µM): 0.99 | relative viability (COR-L23; first compound 0.05 µM): 0.991 | relative viability (COR-L23; first compound 0.1581 µM): 0.928 | relative viability (COR-L23; first compound 0.5 µM): 0.67 | relative viability (NCI-H1755; first compound 0.005 µM): 0.945 | relative viability (NCI-H1755; first compound 0.01581 µM): 0.991 | relative viability (NCI-H1755; first compound 0.05 µM): 1.03 | relative viability (NCI-H1755; first compound 0.1581 µM): 1.02 | relative viability (NCI-H1755; first compound 0.5 µM): 1.02 | relative viability (SK-MES-1; first compound 0.005 µM): 0.421 | relative viability (SK-MES-1; first compound 0.01581 µM): 0.446 | relative viability (SK-MES-1; first compound 0.05 µM): 0.5 | relative viability (SK-MES-1; first compound 0.1581 µM): 0.437 | relative viability (SK-MES-1; first compound 0.5 µM): 0.509 | relative viability (NCI-H1793; first compound 0.005 µM): 0.619 | relative viability (NCI-H1793; first compound 0.01581 µM): 0.478 | relative viability (NCI-H1793; first compound 0.05 µM): 0.696 | relative viability (NCI-H1793; first compound 0.5 µM): 0.867 | relative viability (COR-L 105; first compound 0.01581 µM): 0.317 | relative viability (COR-L 105; first compound 0.05 µM): 0.368 | relative viability (COR-L 105; first compound 0.1581 µM): 0.322 | relative viability (COR-L 105; first compound 0.5 µM): 0.339 | relative viability (HOP-62; first compound 0.005 µM): 0.932 | relative viability (HOP-62; first compound 0.01581 µM): 0.944 | relative viability (HOP-62; first compound 0.05 µM): 0.994 | relative viability (HOP-62; first compound 0.1581 µM): 0.787 | relative viability (HOP-62; first compound 0.5 µM): 0.87 | relative viability (NCI-H1395; first compound 0.005 µM): 0.939 | relative viability (NCI-H1395; first compound 0.01581 µM): 1.11 | relative viability (NCI-H1395; first compound 0.05 µM): 1.02 | relative viability (NCI-H1395; first compound 0.1581 µM): 0.863 | relative viability (NCI-H1395; first compound 0.5 µM): 0.778 | relative viability (NCI-H2170; first compound 0.005 µM): 0.252 | relative viability (NCI-H2170; first compound 0.01581 µM): 0.296 | relative viability (NCI-H2170; first compound 0.05 µM): 0.266 | relative viability (NCI-H2170; first compound 0.5 µM): 0.289 | relative viability (NCI-H1993; first compound 0.005 µM): 0.774 | relative viability (NCI-H1993; first compound 0.01581 µM): 0.775 | relative viability (NCI-H1993; first compound 0.05 µM): 0.758 | relative viability (NCI-H1993; first compound 0.1581 µM): 0.713 | relative viability (NCI-H1993; first compound 0.5 µM): 0.739 | relative viability (UMC-11; first compound 0.005 µM): 0.901 | relative viability (UMC-11; first compound 0.01581 µM): 0.983 | relative viability (UMC-11; first compound 0.05 µM): 1.01 | relative viability (UMC-11; first compound 0.5 µM): 0.839 | relative viability (NCI-H1734; first compound 0.005 µM): 1.03 | relative viability (NCI-H1734; first compound 0.01581 µM): 1.05 | relative viability (NCI-H1734; first compound 0.05 µM): 1.17 | relative viability (NCI-H1734; first compound 0.1581 µM): 0.814 | relative viability (NCI-H1734; first compound 0.5 µM): 1.01 | relative viability (NCI-H647; first compound 0.005 µM): 0.935 | relative viability (NCI-H647; first compound 0.01581 µM): 0.971 | relative viability (NCI-H647; first compound 0.05 µM): 0.98 | relative viability (NCI-H647; first compound 0.1581 µM): 0.866 | relative viability (NCI-H647; first compound 0.5 µM): 0.966 | relative viability (NCI-H1792; first compound 0.005 µM): 0.901 | relative viability (NCI-H1792; first compound 0.01581 µM): 0.925 | relative viability (NCI-H1792; first compound 0.05 µM): 0.922 | relative viability (NCI-H1792; first compound 0.1581 µM): 0.841 | relative viability (NCI-H1792; first compound 0.5 µM): 1.01 | relative viability (NCI-H838; first compound 0.005 µM): 0.933 | relative viability (NCI-H838; first compound 0.01581 µM): 0.913 | relative viability (NCI-H838; first compound 0.05 µM): 1.01 | relative viability (NCI-H838; first compound 0.5 µM): 0.87 | relative viability (HCC-15; first compound 0.005 µM): 0.83 | relative viability (HCC-15; first compound 0.01581 µM): 0.899 | relative viability (HCC-15; first compound 0.05 µM): 0.795 | relative viability (HCC-15; first compound 0.1581 µM): 0.977 | relative viability (HCC-15; first compound 0.5 µM): 0.831 | relative viability (NCI-H2009; first compound 0.005 µM): 0.88 | relative viability (NCI-H2009; first compound 0.01581 µM): 1.1 | relative viability (NCI-H2009; first compound 0.05 µM): 0.937 | relative viability (NCI-H2009; first compound 0.1581 µM): 0.896 | relative viability (NCI-H2009; first compound 0.5 µM): 0.909 | relative viability (NCI-H2347; first compound 0.005 µM): 0.881 | relative viability (NCI-H2347; first compound 0.01581 µM): 0.93 | relative viability (NCI-H2347; first compound 0.05 µM): 0.963 | relative viability (NCI-H2347; first compound 0.1581 µM): 1.11 | relative viability (NCI-H2347; first compound 0.5 µM): 0.907 | relative viability (HARA; first compound 0.005 µM): 0.615 | relative viability (HARA; first compound 0.01581 µM): 0.724 | relative viability (HARA; first compound 0.05 µM): 0.79 | relative viability (HARA; first compound 0.1581 µM): 0.641 | relative viability (HARA; first compound 0.5 µM): 0.831
